Measurements as given in US9164084B2, “Methods for determining aggressiveness of a cancer and treatment thereof” (Purdue Research Foundation, priority 2012, dated 2015).
“Also recorded” adds a separate entry of the source.

Tests used:
[1] = system: LNCaP-HP cells; assay: Spectroscopic (SRL) imaging and Raman spectral analysis of lipid droplets in LNCaP-HP cells; type: cell-based, human
Procedure: The LNCaP-HP cells were treated with an ACAT inhibitor, avasimibe (structure shown in FIG. 13, Panel D), at 10 μM for 2 days.
(§1) A broad spectrum of human prostate epithelial cells has been examined. […] Loss of the tumor suppressor PTEN has been widely observed in both localized and metastatic prostate cancer and correlated with high Gleason grade. With loss of PTEN, PI3K signaling is hyper-activated, which, in turn, leads to AKT activation. […] AKT mediates the phosphorylation and activation of mTOR complex 1 (mTORC1) which plays critical roles in the regulation of protein and lipid biosynthesis. To determine whether the PI3K/AKT/mTOR pathway regulates cholesteryl ester accumulation, both types of cholesteryl ester rich cell lines, PC-3 and high passage LNCaP (LNCaP-HP), were treated with LY294002 (PI3K inhibitor), MK2206 (AKT inhibitor), and Rapamycin (mTOR inhibitor), respectively.
(§2) It is well known that LDL enters a cell via LDL receptor (LDLr) and traffics to the late endosome and lysosome where it is hydrolyzed to free fatty acids and free cholesterol. The excess free cholesterol together with the fatty acyl CoA substrate is then converted to cholesteryl ester by Acyl coenzyme A: cholesterol acyltransferase (ACAT) and stored in lipid droplets. Thus, cells were separately treated with Avasimibe and Sandoz 58-035, two different ACAT inhibitors. […] The significant reduction of cholesteryl ester accumulation upon Avasimibe treatment was further confirmed by an independent biochemical assay of cell lysates.

[2] = system: PC-3 cells; assay: Spectroscopic imaging and Raman spectral analysis of lipid droplets in PC-3 cells; type: cell-based, human
Source text: as §1
Because cholesterol can be either de novo synthesized via the mevalonate pathway or taken up from exogenous lipoproteins, the source of cholesterol used for cholesteryl ester accumulation was investigated. PC-3 cell were first treated with Simvastatin, an inhibitor of 3-hydroxy-3-methylglutaryl coenzyme A HMG-CoA reductase, the rate-limiting enzyme of the mevalonate pathway. […] In contrast, after treating cells with lipoprotein-deficient serum (LPDS), lipid droplets nearly disappeared in cholesteryl ester rich PC-3 and LNCaP-HP cells (FIG. 29, Panel A), but remained the same amount in cholesteryl ester poor cells including LNCaP-LP, DU145, and C4-2. Re-addition of low-density lipoprotein (LDL) into the LPDS medium restored lipid droplets and cholesteryl ester in both PC-3 and LNCaP-HP cells (FIG. 29, Panel B).
as §2

[3] = system: normal prostate RWPE1 cell; assay: Toxic effect on normal prostate RWPE1 cell; type: cell-based; settings: at the same doses
[4] = system: PC-3 xenografts; assay: Mice bearing PC-3 xenografts treated with Avasimibe; type: in vivo
Procedure: To test the potential of using Avasimibe to treat advanced PCa in vivo, Avasimibe (15 mg/kg body weight by i.p. injection) was administered to the mice bearing PC-3 xenografts. Daily treatment of mice with the Avasimibe inhibited the growth of PC-3 tumors by ˜2 folds (FIG. 33), and induced ˜40% reduction in tumor weight by the end of 30-day treatment (FIG. 34).

[5] = system: LNCaP-HP cells; assay: Cellular uptake of DiI-labeled LDL in LNCaP-HP cells; type: cell-based, human; settings: 2-day treatment
Source text: (§3) Finally, it was investigated whether Avasimibe-mediated suppression of tumor growth is associated with the regulation of cholesterol metabolism machinery. It was hypothesized that abrogating ACAT activity would up-regulate cellular level of free cholesterol and then down-regulate SREBP and LDLr in PCa cells (FIG. 40). […] To provide an explanation for enhanced uptake of LDL and then storage of excess cholesterol in the form of cholesteryl ester in aggressive prostate cancer, it was noticed that LDL is the primary carrier of essential polyunsaturated fatty acid including arachidonic acid (AA). Inside cells, AA is converted to a wide range of eicosanoids, which have been implicated in various pathological processes such as inflammation and cancer.

[6] = system: PC-3 cells; assay: Standard biochemical assay of CE and free cholesterol in PC-3; type: cell-based, human; settings: PC-3, 2-day treatment
Source text: as §2, §3

[7] = system: PC-3 cells; assay: LC-MS of arachidonic acid (AA) in PC-3 cell lysates; type: cell-based, human
Source text: as §3

[8] = system: PANC-1 cells; assay: CRS microscopy and Raman spectroscopy of cholesteryl ester in PANC-1 cells; type: cell-based; settings: 7.5 μM for 24 h (FIG. 48)
Source text: Coherent Raman scattering (CRS) microscopy is a label-free imaging technique that is highly sensitive to C—H bond abundant structures such as membranes and lipid droplets. By matching the C—H bond stretching vibration mode at 2850 cm^−1, lipid distribution was imaged in human pancreatic cancer (n=10) and normal tissues (n=10) provided by IU School of Medicine. A remarkable amount of lipid droplets in all pancreatic cancer tissues was observed (FIG. 47, Panel B). […] Furthermore, by coupling a spectrometer to the CRS microscope, the devices was able to dissect the composition of individual lipid droplets through confocal Raman spectral analysis. […] Using emulsified mixtures of cholesteryl oleate and glyceryl trioleate (Sigma), it was verified that height ratio of the Raman peak at 702 cm^−1 the Raman peak at 1442 cm^−1 (CH^2 bending vibration mode) is linearly proportional to molar percentage of cholesteryl ester (FIG. 47, Panel D) out of the total neutral lipids. Based on this calibration curve, it was concluded that over 80% of neutral lipids in human pancreatic cancer tissues are cholesteryl ester. In order to understand how lipids accumulate in pancreatic cancer, several in vitro studies using two common pancreatic cancer cell lines, BxPC3 and PANC-1 were performed. […]

[9] = system: PANC-1 cells; assay: Cell viability (ATP level) of PANC-1 cells; type: cell-based; settings: 7.5 μM for various periods
Procedure: The cells were treated with […] (control) or 7.5 μM avasimibe for various periods. Then cells were lysed and ATP level were quantified to determine the number of viable cells.
As the ACAT-1 inhibitor, avasimibe, effectively removed lipid droplet or cholesteryl ester accumulation in pancreatic cancer cells, the use of avasimibe as a chemotherapy agent for pancreatic cancer was explored. The effects of avasimibe on cell viability in BxPC3 and PANC-1 cells were examined.

## CC(C)c1cc(C(C)C)c(CC(=O)NS(=O)(=O)Oc2c(C(C)C)cccc2C(C)C)c(C(C)C)c1 [Avasimibe, avasimibe]
[1]
  lipid droplet amount: remaining unchanged
[1]; 10 μM for 2 days
  accumulation of cholesteryl ester in lipid droplets (702 cm^-1 Raman peak): completely blocked the accumulation of CHOLESTERYL ESTER
  cell morphology: reversed the cell morphology to that of LNCaP-LP cells
[1]; ACAT inhibitor treatment
  cholesteryl ester accumulation: effectively suppressed cholesteryl ester accumulation
[2]
  lipid droplet amount: remaining unchanged
[2]; ACAT inhibitor treatment
  cholesteryl ester accumulation: effectively suppressed cholesteryl ester accumulation
[3]
  toxic effect on normal prostate cell: no toxic effect
[4]; PC-3 tumor
  increase of apoptosis (TUNEL IHC): ~2 folds
  reduction of proliferation (Ki67 IHC): ~70%
[4]; compared to vehicle-treated
  cholesteryl ester content in PC-3 tumor (spectroscopic imaging of extracted tissues): significantly dropped
[4]; mice (FIG. 33)
  tumor size compared to controls: decreased tumor size
[4]; mice (FIG. 36)
  body weight over the course of treatment: remained steady
[4]; mice receiving Avasimibe
  pathological review of heart, kidney, liver, lung, and spleen: no signs of toxicity
[4]; mice, 15 mg/kg i.p. daily
  appearance of harvested tumors: less bloody in appearance
[4]; mice, 15 mg/kg i.p. daily, end of 30-day treatment
  reduction in tumor weight: ~40%
[4]; mice, 15 mg/kg i.p., daily treatment
  inhibition of growth of PC-3 tumors: ~2 folds
[4]; mouse, in vivo, ip, 15 mg/kg
  general toxicity (animal behavior, body weight): did not cause general toxicity
[5]
  uptake of DiI-labeled LDL: drastically inhibited LDL uptake
[6]
  level of CE: reduced the level of CE
  level of free cholesterol: slightly increased the level of free cholesterol
[7]
  level of AA (arachidonic acid): significantly reduced the level of AA
[8]
  cholesteryl ester accumulation: blocked cholesteryl ester accumulation
[8]; listed as avasimibe
  cholesteryl ester accumulation: eliminated cholesteryl ester; also recorded: blocked cholesteryl ester accumulation
[9]
  cell viability (ATP level): significantly reduced cell viability
[9]; listed as avasimibe
  cell viability (ATP level): significantly reduced the viability; also recorded: dramatically reduced the cell viability
